Assay results published in patent US11242337B2, “Compounds useful for treating gastrointestinal tract disorders” (Ardelyx, Inc., priority 2017, dated 2022).
Counter-ions that a name gives are not always drawn.

Assays:
[1] = target: T1, NHE3 (Homo sapiens, UniProt P48764); experiment: Cell-based assay of NHE-3 activity (pre-incubation inhibition), human; details: human Preincubation; for pIC50: 0-30 μM test compound
T1 construct: expressed in transfected cells
T1 sequence (P48764 26-834): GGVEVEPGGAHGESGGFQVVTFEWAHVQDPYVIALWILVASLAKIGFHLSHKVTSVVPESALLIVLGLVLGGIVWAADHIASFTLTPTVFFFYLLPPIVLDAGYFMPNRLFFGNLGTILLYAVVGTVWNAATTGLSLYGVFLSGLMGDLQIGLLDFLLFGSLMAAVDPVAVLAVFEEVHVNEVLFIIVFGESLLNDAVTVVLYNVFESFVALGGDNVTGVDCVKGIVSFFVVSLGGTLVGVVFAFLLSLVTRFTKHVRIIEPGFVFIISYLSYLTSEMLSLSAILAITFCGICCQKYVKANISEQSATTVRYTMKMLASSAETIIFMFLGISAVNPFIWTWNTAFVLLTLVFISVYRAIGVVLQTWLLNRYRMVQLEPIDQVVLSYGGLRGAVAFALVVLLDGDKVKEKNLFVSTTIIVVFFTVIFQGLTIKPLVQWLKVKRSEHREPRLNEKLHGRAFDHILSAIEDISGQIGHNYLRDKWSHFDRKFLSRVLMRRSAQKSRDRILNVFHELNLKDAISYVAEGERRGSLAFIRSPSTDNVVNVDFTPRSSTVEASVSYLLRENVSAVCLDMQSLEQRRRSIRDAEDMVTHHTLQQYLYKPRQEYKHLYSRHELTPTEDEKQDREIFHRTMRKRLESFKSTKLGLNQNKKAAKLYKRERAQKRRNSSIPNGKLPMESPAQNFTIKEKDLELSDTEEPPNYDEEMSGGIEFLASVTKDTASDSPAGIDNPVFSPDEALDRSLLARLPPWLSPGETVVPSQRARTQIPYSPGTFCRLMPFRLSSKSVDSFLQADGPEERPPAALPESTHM
T1 sequence (Q99653 2-195 partner limits assumed): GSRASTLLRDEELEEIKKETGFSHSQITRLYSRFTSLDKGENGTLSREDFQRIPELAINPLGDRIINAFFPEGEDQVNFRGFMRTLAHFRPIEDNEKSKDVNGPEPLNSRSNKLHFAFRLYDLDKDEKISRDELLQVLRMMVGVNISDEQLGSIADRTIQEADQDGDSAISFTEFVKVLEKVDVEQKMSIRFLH
How it was run: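 PS120 fibroblasts stably expressing human NHE3 and NHERF2, loaded 30 min at 37 °C with 5 μM BCECF-AM in NH4Cl buffer, then acidified 10 min at room temperature in Na+-free buffer with 0–30 μM compound. Initial rate of BCECF fluorescence ratio change (FLIPR) per minute taken as Na+/H+ activity.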

[2] = target: T1, NHE3; experiment: Cell-based assay of NHE-3 activity (persistent inhibition), human; details: human Persistence, 60 min incubation then washout
How it was run: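 PS120 fibroblasts expressing human NHE3 with NHERF2 exposed to 0-30 μM compound for 60 min at RT, then washed out; cells acid-loaded by NH4Cl prepulse with BCECF-AM and Na+-free buffer. Na+-driven pH recovery started 10 min post-washout; initial rate of BCECF ratio change (FLIPR) taken as activity.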

% inhibition [1]	pIC50 [1]	% inhibition [2]	pIC50 [2]	Compound
C (>70%)	C (NHE3 pIC50 > 7)	C (>70%)	C (NHE3 pIC50 > 7)	C[C@H](COCCOCCNC(=O)NCCCCNC(=O)NCCOCCOC[C@@H](C)NS(=O)(=O)c1ccc(O[C@H]2c3cc(Cl)cc(Cl)c3C[C@@H]2N2CCC[C@@H](N)C2)cc1)NS(=O)(=O)c1ccc(O[C@H]2c3cc(Cl)cc(Cl)c3C[C@@H]2N2CCC[C@@H](N)C2)cc1 [Example 97, 3-(2-[2-[(2R)-2-[(4-[[(1S,2S)-2-[(3R)-3-Aminopiperidin-1-yl]-4,6-dichloro-2,3-dihydro-1H-inden-1-yl]oxy]benzene)sulfonamido]propoxy]ethoxy]ethyl)-1-(4-[[(2-[2-[(2R)-2-[(4-[[(1S,2S)-2-[(3R)-3-aminopiperidin-1-yl]-4,6-dichloro-2,3-dihydro-1H-inden-1-yl]oxy]benzene)sulfonamido]propoxy]ethoxy]ethyl)carbamoyl]amino]butyl)urea]
C (>70%)	–	C (>70%)	–	N[C@@H]1CCCN([C@H]2Cc3c(Cl)cc(Cl)cc3[C@@H]2Oc2c(F)cc(S(=O)(=O)NCCOCCOCCNC(=O)NCCCCNC(=O)NCCOCCOCCNS(=O)(=O)c3cc(F)c(O[C@H]4c5cc(Cl)cc(Cl)c5C[C@@H]4N4CCC[C@@H](N)C4)c(F)c3)cc2F)C1 [Example 85, 3-[2-(2-[2-[(4-[[(1S,2S)-2-[(3R)-3-Aminopiperidin-1-yl]-4,6-dichloro-2,3-dihydro-1H-1-inden-1-yl]oxy]-3,5-difluorobenzene)sulfonamido]ethoxy]ethoxy)ethyl]-1-[4-([[2-(2-[2-[(4-[[(1S,2S)-2-[(3R)-3-aminopiperidin-1-yl]-4,6-dichloro-2,3-dihydro-1H-inden-1-yl]oxy]-3,5-difluorobenzene)sulfonamido]ethoxy]ethoxy)ethyl]carbamoyl]amino)butyl]urea; bis(trifluoroacetic acid)]

Further lines, the compound ahead of its results:

Compound	% inhibition [1]	pIC50 [1]	% inhibition [2]	pIC50 [2]
Cc1cc(S(=O)(=O)NCCOCCOCCNC(=O)NCCCCNC(=O)NCCOCCOCCNS(=O)(=O)c2ccc(O[C@H]3c4cc(Cl)cc(OC(F)(F)F)c4C[C@@H]3N(C)C)c(C)c2)ccc1O[C@H]1c2cc(Cl)cc(OC(F)(F)F)c2C[C@@H]1N(C)C [Example 20, 1-[2-(2-[2-[(4-[[(1S,2S)-6-Chloro-2-(dimethylamino)-4-(trifluoromethoxy)-2,3-dihydro-1H-inden-1-yl]oxy]-3-methylbenzene)sulfonamido]ethoxy]ethoxy)ethyl]-3-[4-([[2-(2-[2-[(4-[[(1S,2S)-6-chloro-2-(dimethylamino)-4-(trifluoromethoxy)-2,3-dihydro-1H-inden-1-yl]oxy]-3-methylbenzene)sulfonamido]ethoxy]ethoxy)ethyl]carbamoyl]amino)butyl]urea]	A (NHE3 < 40%)	A (NHE3 pIC50 < 6)	A (NHE3 < 40%)	A (NHE3 pIC50 < 6)
Cc1cc(S(=O)(=O)NCCOCCOCCNC(=O)NCCCCNC(=O)NCCOCCOCCNS(=O)(=O)c2ccc(O[C@H]3c4cc(Cl)cc(Cl)c4C[C@@H]3N(C)C)c(C)c2)ccc1O[C@H]1c2cc(Cl)cc(Cl)c2C[C@@H]1N(C)C [Example 22, 3-[2-(2-[2-[(4-[[(1S,2S)-4,6-Dichloro-2-(dimethylamino)-2,3-dihydro-1H-inden-1-yl]oxy]-3-methylbenzene)sulfonamido]ethoxy]ethoxy)ethyl]-1-[4-([[2-(2-[2-[(4-[[(1S,2S)-4,6-dichloro-2-(dimethylamino)-2,3-dihydro-1H-inden-1-yl]oxy]-3-methylbenzene)sulfonamido]ethoxy]ethoxy)ethyl]carbamoyl]amino)butyl]urea dihydrochloride]	C (>70%)	C (NHE3 pIC50 > 7)	C (>70%)	C (NHE3 pIC50 > 7)
Cc1cc(S(=O)(=O)N2CC[C@@H](COCCOCCNC(=O)NCCCCNC(=O)NCCOCCOC[C@@H]3CCN(S(=O)(=O)c4ccc(O[C@H]5c6cc(Cl)cc(C#N)c6C[C@@H]5N(C)C)c(C)c4)C3)C2)ccc1O[C@H]1c2cc(Cl)cc(C#N)c2C[C@@H]1N(C)C [Example 47]	C (>70%)	–	C (>70%)	–
